{
  "source": "patent US10155004B2",
  "about": "“17-hydroxy-17-pentafluoroethyl-estra-4,9(10)-dien-11-aryl derivatives, method of production thereof and use thereof for the treatment of diseases” (BAYER INTELLECTUAL PROPERTY GMBH, priority 2009, dated 2018)",
  "key": {"[1]": {"molecular_target": "T1, human progesterone receptor B (Homo sapiens, UniProt P06401)", "T1 construct": "expressed in transfected cells; host or cells: SK-N-MC human neuroblastoma cells, stably transfected", "T1 sequence (P06401 1-933)": "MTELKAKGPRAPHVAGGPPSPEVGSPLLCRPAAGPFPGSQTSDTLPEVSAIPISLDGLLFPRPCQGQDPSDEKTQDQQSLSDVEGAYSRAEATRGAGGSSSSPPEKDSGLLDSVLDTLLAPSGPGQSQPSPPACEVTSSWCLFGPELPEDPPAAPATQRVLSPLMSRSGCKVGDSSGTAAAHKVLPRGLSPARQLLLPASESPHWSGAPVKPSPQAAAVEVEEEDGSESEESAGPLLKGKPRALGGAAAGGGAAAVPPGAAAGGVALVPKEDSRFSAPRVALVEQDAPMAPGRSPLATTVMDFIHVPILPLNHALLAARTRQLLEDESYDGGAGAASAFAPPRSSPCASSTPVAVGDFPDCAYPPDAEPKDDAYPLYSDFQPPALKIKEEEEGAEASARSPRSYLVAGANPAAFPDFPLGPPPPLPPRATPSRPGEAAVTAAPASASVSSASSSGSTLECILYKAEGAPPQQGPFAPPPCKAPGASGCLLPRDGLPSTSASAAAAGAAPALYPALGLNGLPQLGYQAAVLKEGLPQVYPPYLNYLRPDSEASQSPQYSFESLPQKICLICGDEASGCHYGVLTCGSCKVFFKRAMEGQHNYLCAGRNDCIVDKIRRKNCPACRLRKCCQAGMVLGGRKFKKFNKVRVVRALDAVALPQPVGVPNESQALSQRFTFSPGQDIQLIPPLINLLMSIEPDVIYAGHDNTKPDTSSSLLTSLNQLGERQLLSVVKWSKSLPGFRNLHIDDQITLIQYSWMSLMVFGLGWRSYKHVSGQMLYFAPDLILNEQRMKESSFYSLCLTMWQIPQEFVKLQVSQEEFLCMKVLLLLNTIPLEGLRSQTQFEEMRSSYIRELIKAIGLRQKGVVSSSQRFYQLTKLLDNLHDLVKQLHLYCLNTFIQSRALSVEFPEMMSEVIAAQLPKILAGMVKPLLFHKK", "experiment": "Progesterone receptor-antagonistic action in stably transfected SK-N-MC cells, MTV-LUC reporter (PR-B)", "type": "cell-based", "conditions": "antagonistic efficacy vs 0.1 nmol/l promegestone", "procedure": "EXAMPLE 16 PROGESTERONE RECEPTOR-ANTAGONISTIC ACTION IN STABLE TRANSFECTANTS OF HUMAN NEUROBLASTOMA CELLS (SK-N-MC CELLS) WITH THE HUMAN PROGESTERONE A OR PROGESTERONE B RECEPTOR AND AN MTV-LUC REPORTER CONSTRUCT\nSK-N-MC cells (human neuroblastoma cells), which have been stably transfected with plasmids, which express the human progesterone receptor B (pRChPR-B-neo) or the human progesterone receptor A (pRChPR-A-neo) and a reporter construct (pMMTV-LUC), were incubated for 24 hours either in the absence (negative control) or in the presence of increasing amounts of the respective test compound (0.01 nmol/l, 0.1 nmol/l 1 nmol/l, 10 nmol/l, 100 nmol/l and 1 μmol/l), in order to determine the agonistic efficacy. As positive control of reporter gene induction, the cells were treated with the synthetic gestagen promegestone (0.01 nmol/l, 0.1 nmol/l, 1 nmol/l, 10 nmol/l, 100 nmol/l and 1 μmol/l). For determination of the antagonistic activity, the cells were treated with 0.1 nmol/1 promegestone and additionally with increasing amounts of the respective test compound (0.01 nmol/l, 0.1 nmol/l, 1 nmol/l, 10 nmol/l, 100 nmol/l and 1 μmol/l). The activity of the LUC reporter gene (LUC=luciferase) was determined in the cell lysates and was measured as RLU (relative light units). All measured values are given as percentage efficacy and as EC50 or IC50 concentrations.\n11β-(4-Acetylphenyl)-20,20,21,21,21-pentafluoro-17-hydroxy-19-nor-17α-pregna-4,9-dien-3-one and 20,20,21,21,21-pentafluoro-17-hydroxy-11β-[4-(hydroxyacetyl)phenyl]-19-nor-17α-pregna-4,9-dien-3-one, very potent and therefore preferred examples from WO98/34947 and WO2008/058767, were tested as comparative compounds along with the test compound."}, "cardiovascular system": {"system": "cardiovascular system", "experiment": "Action on the cardiovascular system (incl. ECG) of anaesthetized beagle dogs", "type": "in vivo", "procedure": "EXAMPLE 20 INVESTIGATION OF THE ACTION ON THE CARDIOVASCULAR SYSTEM (INCL. ECG) OF ANAESTHETIZED BEAGLE DOGS\n(11β,17β)-17-Hydroxy-11-[4-(methylsulphonyl)phenyl]-17-(pentafluoroethy)estra-4,9-dien-3-one, dissolved in a mixture of PEG 400 and HP-β-CD (60% PEG 400, 40% HP-β-CD 30%), was administered intravenously to anaesthetized female beagle dogs. The body weight of the dogs was >9 kg. 3 dogs were treated per group and additionally 3 dogs in the control group. 0.1; 0.33 and 1 mg/kg of the substance was administered in 3 consecutive infusions, in each case over a period of 30 minutes. The maximum amount of vehicle was 0.4 ml per kg for 30 minutes. Blood samples were taken from the animals at various time points. The highest plasma level (average for all 3 animals) was 1650 ng/ml at the end of the third infusion."}, "rodents and non-rodents": {"system": "rodents and non-rodents", "conditions": "in vivo"}},
  "data": [
    {"smiles": "C[C@]12C[C@H](c3ccc(S(C)(=O)=O)cc3)C3=C4CCC(=O)C=C4CC[C@H]3[C@@H]1CC[C@@]2(O)C(F)(F)C(F)(F)F", "note": "[Example 4, (11β,17β)-17-Hydroxy-11-[4-(methylsulphonyl)phenyl]-17-(pentafluoroethyl)estra-4,9-dien-3-one]", "values": [
      {"measurement": "Progesterone receptor B (PR-B) Efficacy", "setting": "[1]", "result": 100, "unit": "%"},
      {"measurement": "highest plasma level (average for all 3 animals)", "setting": "cardiovascular system; end of third infusion, i.v. 0.1, 0.33 and 1 mg/kg consecutive 30 minute infusions", "result": 1650, "unit": "ng/mL"},
      {"measurement": "effects on the cardiovascular system (pulmonary artery pressure, systemic arterial blood pressure, heart rate, ECG)", "setting": "cardiovascular system; i.v. 0.1, 0.33 and 1 mg/kg, in comparison with the control", "result": "no biologically relevant effects"},
      {"measurement": "safety profile", "setting": "rodents and non-rodents", "result": "especially favourable safety profile"}
    ]}
  ]
}
